The values that follow are results of earlier work, collected in patent US20070161683A1, “Certain chemical entities, compositions, and methods” (priority 2005, published 2007).

One may read the GI50 as the concentration at which growth is held to half of that of the control.

The subject of this series is A549 cells. To be noted: concentration that decreases the rate of cell growth by fifty percent.
Consider `O=c1[nH]cc(F)c(=O)[nH]1` [5-fluorouracil], for which the GI50 is 1000 nM.
Regarding `COc1cccc2c1C(=O)c1c(O)c3c(c(O)c1C2=O)C[C@@](O)(C(=O)CO)C[C@@H]3O[C@H]1C[C@H](N)[C@H](O)[C@H](C)O1` [doxorubicin], the GI50 is 63 nM.
With `NC(=O)NO` [hydroxyurea], the GI50 is 500000 nM.
Take `CC(=O)O[C@H]1C(=O)[C@@]2(C)[C@H]([C@H](OC(=O)c3ccccc3)[C@]3(O)C[C@H](OC(=O)[C@H](O)[C@@H](NC(=O)c4ccccc4)c4ccccc4)C(C)=C1C3(C)C)[C@]1(OC(C)=O)CO[C@@H]1C[C@@H]2O` [paclitaxel]: the concentration for 50% growth inhibition (GI50) was 4 nM.
